# Values of other authors as cited in patent US7927486B2, “Polymer modified porous substrate for solid phase extraction” (priority 2005, dated 2011).
compound,measurement,value
CCCCNCC(O)c1ccc(O)cc1.CCCCNCC(O)c1ccc(O)cc1.O=S(=O)(O)O (stereo not shown) [Bamathan hemisulfate],Log P,1.29
